In patent US7906488B2, “Sphingolipids in treatment and prevention of steatosis and of steatosis or of hepatotoxicity and its sequelae” (Nederlandse Organisatie Voor …, priority 2004, dated 2011):

Experiments:
apoE3*-Leiden mice = test: Example 2 overview: high fat high cholesterol W-diet with 1% phytosphingosine, 4 weeks; type: in vivo
Description: The experiment as described in example 1 was repeated several times but using 1% phytosphingosine as a supplement to the W-diet. Each time, one group (control group, consisting of 6 or 12 apoE3*-Leiden mice) was fed the high fat high cholesterol W-diet. Another group (treatment group, consisting of 6 or 12 apoE3*-Leiden mice), was fed the same high fat high cholesterol W-diet diet supplemented with 1% phytosphingosine.
In all mice the following parameters were determined (after 4 hours of fasting) after a diet period of 4 weeks: plasma total cholesterol (PTC), plasma triglycerides (PTG), plasma free fatty acids (PFFA), liver total cholesterol (LTC), liver triglycerides (LTG), liver cholesteryl esters (LCE), serum amyloid A (SAA) (mg/ml), fibrinogen (in mg/ml), body weight (in g), liver weight (in g), heart weight (in g), ALAT (in U/L).

APOE*3Leiden mice = test: In vivo clearance of VLDL-like TG-rich emulsion particles; conditions: 1% PS diet
Description: Plasma parameters: Tail blood samples were collected in EDTA-coated cups, or in paraoxon-coated capillaries to prevent lipolysis as described in Zambon et al. 1993 (Zambon et al. 1993. J. Lipid Res. 34:1021-1028). Plasma lipid parameters were determined using commercial kits for total cholesterol (C) Chol R1 from Roche Diagnostics, Mannheim, Germany), non-esterified free fatty acids (FFA) (NEFA-C; Wako chemicals, Neuss, Germany), Total triglycerides (TG) (Triglyceride GPO-Trinder; Sigma, St. Louis, Mo.), β-hydroxybutyrate (β-HB; Sigma) and ALAT (Reflotron GPT; Roche). Serum amyloid A (SAA) was measured by ELISA (Biosource, Nivelles, Belgium) and fibrinogen by sandwich ELISA, as described in Koopman et al., 2005 (Koopman et al. 2005. Fibrinol Proteol 11:19). For lipoproteins fractionation, groupwise-pooled plasma was size-fractionated by fast protein liquid chromatography (FPLC) on a Superose 6 column (Äkta; Amersham Pharmacia Biotech, Uppsala, Sweden). Fractions were assayed for total C and TG as described. Hepatic VLDL-TG production: The rate of hepatic VLDL-TG production, de novo apoB secretion, and VLDL composition were determined in overnight-fasted mice. Mice were anaesthetized with vetranquil/fentanyl/midazolam i.p., and injected i.v. with 0.1 ml PBS containing 100 μCi Tran^35S-label™ (ICN Biomedicals, Irvine, Calif.) to measure the de novo apoB synthesis. After 30 min, the animals received a Triton WR1339 injection (Tyloxapol, Sigma; 500 mg/kg body weight in 100 μl saline) to prevent systemic lipolysis of newly-secreted hepatic VLDL-TG (Aalto-Setala et al. 1992. J. Clin. Invest 90:1889-1900.27) Blood samples were drawn at 0, 15, 30, 60, and 90 min after Triton WR1339 injection and plasma TG concentrations were determined. After 90 min, the animals were sacrificed and blood was collected by retro-orbital bleeding for isolation of VLDL. VLDL composition: VLDL particles (d<1.019) were separated from other lipoproteins in plasma by density gradient ultra-centrifugation, as described in Jong et al., 1996 (Jong et al. 1996. Arterioscler. Thromb. Vasc. Biol. 16:934-940). Protein content of the VLDL fraction was determined by Lowry's assay (Lowry et al., 1951. J. Biol. Chem. 193:265-275), and TG and total C were determined as described above. Phospholipids and free cholesterol were determined using standard commercial kits (Wako Chemicals, Neuss, Germany). The ^35S-apoB content of VLDL was measured after selective precipitation of apoB with isopropanol as described elsewhere (Li et al. 1996 J. Lipid Res. 37:210-220; Pietzsch et al. 1995. Biochim. Biophys. Acta 1254:77-88). In vivo clearance of VLDL-like TG-rich particles: To determine whether 1% PS accelerates the clearance of TG-rich lipoproteins from plasma, we used radiolabeled emulsion particles as a tool. VLDL-like emulsion particles containing 200 μCi of [^3H]triolein and 20 μCi of [^14C]cholesteryl oleate were prepared and characterized as described in Rensen et al. 1997 (Rensen et al., 1997. J. Lipid Res. 38:1070-1084). Fed mice were anaesthetized as described above and laparotomy was performed. […] After taking the last liver and blood sample, the remainder of the liver, heart, spleen, hind limb muscle, and gonadal, perirenal and intestinal white adipose tissues were harvested. Lipids were extracted overnight at 60° C. in 500 μL of Solvable™, and radioactivity was counted as described in Rensen et al., 1997 (supra). […]

For `CCCCCCCCCCCCCC[C@@H](O)[C@@H](O)[C@@H](N)CO` [PS, phytosphingosine], the “Plasma lipid levels (total cholesterol, triglycerides and free fatty acids) vs control” value (apoE3*-Leiden mice; 1% PS in W-diet) was “significantly decreased”, the “Liver lipid levels vs control” value (apoE3*-Leiden mice; 1% PS in diet W) was “significantly decreased” and the ALAT vs control (apoE3*-Leiden mice; 1% PS in the diet) was “significantly lowered”. The “Plasma level of fibrinogen vs control” value (apoE3*-Leiden mice; 1% phytosphingosine in W-diet) was “increased”, the “Levels of serum amyloid A (SAA) vs control” value (apoE3*-Leiden mice; 1% phytosphingosine in W-diet, 4 hours fasting) was “significantly lower” and the “Uptake of [^14C]cholesteryl oleate or [^3H]TG-derived radioactivity by peripheral muscle and adipose tissues” value (APOE*3Leiden mice) was “No effects”. For the same compound, the “Plasma clearance of [^14C]cholesteryl oleate, t1/2” value (APOE*3Leiden mice; 5 weeks, fed mice) was 39.5 ± 5.3 min, the “Serum clearance of [^3H]TG, t1/2” value (APOE*3Leiden mice; 5 weeks, fed mice) was 4.7 ± 0.3 min and the “[^3H]TG uptake in the liver” value (APOE*3Leiden mice; at 10 min and 20 min after injection) was “increased significantly”. For the same compound, the “Liver uptake of [^14C]cholesteryl oleate, change vs control” value (APOE*3Leiden mice; at 20 min) was “+60%”.
